The text below walks through data of patent US10434225B2, “Para-xylene films and therapeutic uses thereof” (NORTHWESTERN UNIVERSITY, priority 2013, dated 2019).

The experiment relates to Interleukin-6 (IL-6). The experiment is described as follows: IL-6 gene expression by real-time PCR in macrophages on surfaces. Type of experiment: cell-based, murine. As to conditions: RAW264.7 macrophages, LPS stimulated (+), DEX added to Control or integrated into PPX film. Here is the method: In-vitro analysis and drug release was completed through deposition of PPX on varying culture plates. Surface treatment of prepared PPX culture plates either had plasma oxidation (Oxd) or lack thereof resulting in hydrophilic or hydrophobic surfaces (native form). RAW264.7 macrophages and NIH-3T3 fibroblasts were analyzed on varying surfaces to determine in-vitro response. Cells were kept in DMEM media supplemented with 10% FBS and 1% Pen/Strep in humidified atmosphere with 5% CO^2. Cellular analysis was completed through the application of time lapse bright field imaging in addition to multiple cellular assays examining viability (MTT, Roche Diagnostics), proliferation (CyQUANT, Life Technologies) and adhesion (Vybrant, Molecular Probes) onto polystyrene, representing baseline biocompatible control surfaces, and various PPX surfaces. RNA isolation was accomplished utilizing TRIzol reagent (Invitrogen Corporation, Carlsbad, Calif.) per the manufacturer's guidelines. cDNA was synthesized using the iScript Select cDNA Synthesis Kit (Quanta Biosciences, Gaithersburg, Md.). PCR was done using SYBER Green detection reagents (Quanta Biosciences, Gaithersburg, Md.) and appropriate primers for IL-6 and β-Actin (Integrated DNA Technologies, Coralville, Iowa). Samples were amplified using a MyiQ real-time PCR detection system (Bio-Rad).
(In qPCR the cycle at which signal appears reflects the starting amount.)

As to `C[C@@H]1C[C@H]2[C@@H]3CCC4=CC(=O)C=C[C@]4(C)[C@@]3(F)[C@@H](O)C[C@]2(C)[C@@]1(O)C(=O)CO` [DEX, dexamethasone], the “IL-6 expression, LPS stimulation (+) with DEX” value is listed as 217.4±54.0.
